Assay [1] has as its system U937 human histiocytic leukemia cell line. In words: Assay 2: inhibition of TSQ induced necroptosis, 96 well plate format. The following applies: read-out: Inhibition of TSQ-induced necroptosis (cell based assay) IC50 (U937, TSQ nM). The protocol:
(§1) Assay 2: Screening Compounds for Inhibition of TSQ Induced Necroptosis, 96 Well Plate Format.
(§2) Cell Line ID: U937 human histiocytic leukemia cell line.
(§3) Cell Concentration (cells/well): Final cell density is 5000 cells per well.
(§4) Cell growth medium: HT-RPMI+7.4% FBS. Cells are cultured in Corning 150 cm^2 tissue culture flasks with vented caps at 37° C./5% CO2.
(§5) Incubation time (hours): 48 hours following addition of compounds and death stimuli
(§6) Compound concentration: 100 nM
(§7) DMSO final concentration (% v/v): 0.3%.
(§8) Compounds that are in the Death Stimulation Cocktail and Their Final Concentrations:
(§9) hTNF-Fc (100 ng/ml)—produced by standard procedures as shown in Bossen et al., J Biol Chem, 2006, 281(20), 13964-13971.
(§10) Compound A (500 nM)—Smac mimetic, Tetralogic
(§11) Q-VD-OPh (10 μM)—MP Biomedicals
(§12) Data is loaded into Abase and normalised. 10 points titration curve are fitted with the 4 parameter logistic nonlinear regression model and the IC50 reported reflects the inflection point of the curve for curve fitting.

For assay [2] the test system is unchanged. In words: Off-target effect (cell based assay), reported with assay 1. The conditions noted are these: U-937, Table 1, assay 1, read-out: Off-target effect (cell based assay) IC50. As to the method: (§13) Assay 1: Screening Compounds for Inhibition of TSQ Induced Necroptosis, 96 Well Plate Format.
(§14) Cell Line ID: […] human histiocytic leukemia cell line.
(§15) Cell Concentration (cells/well): 35,000 per well in 120 μL of media, counted and plated immediately prior to addition of inhibitor and death stimuli. Final well volume of 150 μL after addition of compounds and death stimuli
(§16) Cell growth medium: HTRPMI (WEHI Media kitchen, contains L-Glutamine and penicillin, streptomycin)—supplemented with 7.4% v/v FCS (Gibco, Precision Plus. Lot #1221437)
as §5
(§17) Compound Concentrations—Log Titrations:
(§18) DMSO final concentration (% v/v): 1.2% in 10 μM well to 0.2% in the control well.
(§19) Cells treated with PI staining (1 μg/ml) and analysed by flow cytometry

For assay [3] the test system is unchanged. Put plainly: Assay 1: inhibition of TSQ induced necroptosis, 96 well plate format. The class given is cell-based. The conditions noted are these: U-937, Table 1, assay 1, hTNF-Fc 100 ng/ml, Compound A 500 nM, Q-VD-OPh 10 μM, 48 hours, PI staining, flow cytometry, read-out: Inhibition of TSQ-induced necroptosis (cell based assay) IC50. The protocol:
For in vitro analysis, the necroptosis inhibition may be determined by assays used to measure TSQ-induced necroptosis, as described in the biological tests defined herein.
as §13, §14, §15, §16, §5, §17, §18, §8, §9, §10, §11, §19
A general note: In flow cytometry, cells or beads pass a laser one at a time.

The subject of the next assay is U937. In words: Off-target effect (cell based assay), reported with assay 2. The following applies: Homo sapiens. The protocol: as §1, §2, §3, §4, §5, §6, §7, §12
The mark [4] stands for this setting: U-937, Table 2, assay 2, U937, 5000 cells per well, hTNF-Fc 100 ng/ml, Compound A 500 nM, Q-VD-OPh 10 μM, 48 hours.
Setting [5] is: U-937, Table 2, assay 2, U937, read-out: Off-target effect (cell based assay) IC50 (U937).

Where two headings read alike, the source gives them in different places.

As for `Cc1ccc(Nc2nccc(N(C)c3ccc(NC(=O)Nc4cc(F)cc(C(F)(F)F)c4)cc3)n2)cc1N1CCNC1=O` [Compound 34, 1-(3-fluoro-5-(trifluoromethyl)phenyl)-3-(4-(methyl(2-((4-methyl-3-(2-oxoimidazolidin-1-yl)phenyl)amino)pyrimidin-4-yl)amino)phenyl)urea], the IC50 in assay [1] (setting [4]) worked out at 29 nM; in assay [2], 2420 nM; in assay [3], 23 nM; in the assay with U937 (setting [5]), 0.513 µM.
Take `CNC(=O)c1cc(Nc2nccc(N(C)c3ccc(NC(=O)Nc4cccc(OC(F)(F)F)c4)cc3)n2)ccc1C` [Compound 39, N,2-dimethyl-5-((4-(methyl(4-(3-(3-(trifluoromethoxy)phenyl)ureido)phenyl)amino)pyrimidin-2-yl)amino)benzamide]: the concentration for half-maximal inhibition (IC50) in assay [1] (setting [4]) was determined as 3.9 nM; with U937 (setting [5]), 0.419 µM.
The like results for `CN(c1ccc(NC(=O)Nc2ccc(OC(F)(F)F)cc2)cc1)c1ccnc(Nc2cccc(N3CC4(CCOCC4)CC3=O)c2)n1` [Compound 40, 1-(4-(methyl(2-((3-(3-oxo-8-oxa-2-azaspiro[4.5]decan-2-yl)phenyl)amino)pyrimidin-4-yl)amino)phenyl)-3-(4-(trifluoromethoxy)phenyl)urea] were, in that order, 7.5 nM and more than 10 µM.
For `Cc1ccc(Nc2nccc(N(C)c3ccc(NC(=O)Nc4ccc(OC(F)(F)F)cc4)cc3)n2)cc1N1CC2(CCOCC2)CC1=O` [Compound 41, 1-(4-(methyl(2-((4-methyl-3-(3-oxo-8-oxa-2-azaspiro[4.5]decan-2-yl)phenyl)amino)pyrimidin-4-yl)amino)phenyl)-3-(4-(trifluoromethoxy)phenyl)urea], in that order: 14 nM and more than 10 µM.
For `CNC(=O)c1cc(Nc2nccc(N(C)c3ccc(NC(=O)Nc4cc(C#N)cc(C(F)(F)F)c4)cc3)n2)ccc1C` [Compound 42], in that order: 49 nM and more than 10 µM.
Take `CN(c1ccc(NC(=O)Nc2ccc(OC(F)(F)F)cc2)cc1)c1ccnc(Nc2cccc(S(N)(=O)=O)c2)n1` [drawing 174, reference compound]: the IC50 was determined as 75 nM in assay [1] (U-937, 48 h) and 1.5 µM in the assay on U937 (U-937, read-out: Off-target effect (cell based assay) IC50 (U937, μM)).

Usually IC50 stands for the point on the concentration scale where inhibition reaches its midpoint.

For the origin of these results see US20180057465A1, “Inhibitors of Necroptosis” (Catalyst Therapeutics Pty Ltd, priority 2015, published 2018).
